Laboratory results reported in patent US9957267B2, “Somatostatin modulators and uses thereof” (Crinetics Pharmaceuticals, Inc., priority 2015, dated 2018).
Like-named read-outs stand apart in the source and are kept apart here.

Experiments:
Format in all cases: cell-based
[1] = molecular target: T1, human somatostatin receptor subtype 2a (Homo sapiens, UniProt P30874); assay: cAMP assay for SSTR2a agonists (HTRF cAMP kit, NKH-477 stimulated); settings: CHO cells stably expressing human SSTR2a, 1.6 μM NKH-477
T1 construct: expressed in transfected cells
Description: (§1) Chinese hamster ovary (CHO) cells stably expressing one of the six human or rodent somatostatin receptor subtypes are grown to 85-100% confluence on standard tissue culture dishes in F12-Ham's growth media (Hyclone) with following additives: 10% donor calf serum (Hyclone), 200 U/mL penicillin (Hyclone), 200 μg/mL streptomycin (Hyclone), 20 mM HEPES (Hyclone), 200 μg/mL hygromycin Hyclone.
(§2) General overview: All SSTR subtypes are Gi coupled G-protein coupled receptors (GPCRs) that lead to decreases in intracellular cyclic AMP (cAMP) when activated by an agonist. Therefore, measurement of intracellular cAMP levels can be used to assess whether compounds of the invention are agonists of SSTR subtypes (John Kelly, Troy Stevens, W. Joseph Thompson, and Roland Seifert, Current Protocols in Pharmacology, 2005, 2.2.1-2.2). One example of an intracellular cAMP assay is described below.
Four days prior to the assay, 5000 Chinese hamster ovary (CHO) cells stably expressing the human somatostatin receptor subtype 2a are plated in each well of a 96-well tissue culture plate (Nest Biotech Cell, flat bottom with low evaporation tissue culture treated; Polystyrene; Non-Pyrogenic) in F12-Ham's media (100 μL/well) supplemented with 200 μg/mL of hygromycin. Incubate at 37 C, 5% CO2, 95% humidity for four days. The cells should reach full confluence. On the day of the assay, various dilutions of the compounds of the invention are prepared in assay buffer (HRTF cAMP kit, Cisbio) in the presence of 1.6 μM NKH-477 (a water-soluble forskolin derivative) and 50 μL of the dilutions are added to the cultured cells and incubated for 20 minutes at 37° C. […] 50 μL of lysis buffer (HRTF cAMP kit, Cisbio) is added to each well and incubated at room temperature for 30 minutes, after which 150 μL assay buffer is added to each well. In a 384-well plate (Grenier, 784-080), 10 μL of assay mixture is added to 10 μL of developing mixture, containing cAMP detection and visualization antibodies are added and the assay is allowed incubate for 1-24 hours at room temperature. The intracellular cAMP concentrations are then measured using a commercially available detection kit (for example, the cAMP HTRF kit, Cisbio). The measured intracellular cAMP concentrations are plotted vs. the concentration of the compounds of the invention and the EC50 of the compounds are calculated using standard methods.

SSTR5 = molecular target: T2, SSTR5 (Homo sapiens, UniProt P35346); assay: cAMP functional agonist assay, CHO cells expressing SSTR5; settings: CHO cells stably expressing SSTR5, cAMP
T2 construct: expressed in transfected cells
Description: as §1, §2

SSTR3 = SSTR3 (UniProt P32745); assay: cAMP functional agonist assay, CHO cells expressing SSTR3; settings: CHO cells stably expressing SSTR3, cAMP
Description: as §1, §2

SSTR4 = molecular target: T3, SSTR4 (Homo sapiens, UniProt P31391); assay: cAMP functional agonist assay, CHO cells expressing SSTR4
T3 construct: expressed in transfected cells
Description: as §1
(§3) General overview: All SSTR subtypes are Gi coupled G-protein coupled receptors (GPCRs) that lead to decreases in intracellular cyclic AMP (cAMP) when activated by an agonist. […] One example of an intracellular cAMP assay is described below.

SSTR1 = molecular target: T4, SSTR1 (Homo sapiens, UniProt P30872); assay: cAMP functional agonist assay, CHO cells expressing SSTR1
T4 construct: expressed in transfected cells
Description: as §1, §3

[2] = CHO cells stably expressing SSTR4, cAMP, read-out: SSTR4 EC50

T2 sequence (P35346 whole entry): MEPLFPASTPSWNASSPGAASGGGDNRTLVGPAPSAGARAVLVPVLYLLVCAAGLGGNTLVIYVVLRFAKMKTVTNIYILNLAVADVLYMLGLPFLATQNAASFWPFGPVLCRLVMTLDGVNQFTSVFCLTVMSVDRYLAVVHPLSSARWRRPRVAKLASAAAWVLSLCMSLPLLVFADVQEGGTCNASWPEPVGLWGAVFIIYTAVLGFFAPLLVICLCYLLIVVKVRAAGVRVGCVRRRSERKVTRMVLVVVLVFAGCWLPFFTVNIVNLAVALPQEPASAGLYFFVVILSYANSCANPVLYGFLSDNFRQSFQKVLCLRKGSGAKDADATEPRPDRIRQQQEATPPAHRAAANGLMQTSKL
SSTR3, sequence (P32745 whole entry): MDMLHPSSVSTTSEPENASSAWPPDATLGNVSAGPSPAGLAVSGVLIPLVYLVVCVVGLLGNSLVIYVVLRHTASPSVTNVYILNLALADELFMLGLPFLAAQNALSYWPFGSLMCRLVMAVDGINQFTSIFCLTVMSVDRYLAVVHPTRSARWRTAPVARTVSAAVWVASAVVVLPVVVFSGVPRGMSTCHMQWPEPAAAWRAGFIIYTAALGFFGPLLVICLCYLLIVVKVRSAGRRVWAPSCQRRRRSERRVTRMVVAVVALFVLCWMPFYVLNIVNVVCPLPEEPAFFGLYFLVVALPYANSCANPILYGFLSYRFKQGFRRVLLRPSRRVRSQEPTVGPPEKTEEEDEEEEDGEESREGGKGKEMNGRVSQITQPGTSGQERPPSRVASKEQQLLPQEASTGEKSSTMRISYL
T3 sequence (P31391 whole entry): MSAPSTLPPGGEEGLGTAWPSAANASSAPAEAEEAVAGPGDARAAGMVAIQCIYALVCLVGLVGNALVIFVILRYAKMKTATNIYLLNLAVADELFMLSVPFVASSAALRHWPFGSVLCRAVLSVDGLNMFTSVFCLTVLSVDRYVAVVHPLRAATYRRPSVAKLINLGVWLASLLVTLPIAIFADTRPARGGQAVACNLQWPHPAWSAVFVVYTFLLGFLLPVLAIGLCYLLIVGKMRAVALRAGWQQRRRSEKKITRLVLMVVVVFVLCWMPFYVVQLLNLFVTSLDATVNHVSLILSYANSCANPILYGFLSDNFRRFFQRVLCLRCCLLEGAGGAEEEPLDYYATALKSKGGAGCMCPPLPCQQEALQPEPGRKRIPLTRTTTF
T4 sequence (P30872 whole entry): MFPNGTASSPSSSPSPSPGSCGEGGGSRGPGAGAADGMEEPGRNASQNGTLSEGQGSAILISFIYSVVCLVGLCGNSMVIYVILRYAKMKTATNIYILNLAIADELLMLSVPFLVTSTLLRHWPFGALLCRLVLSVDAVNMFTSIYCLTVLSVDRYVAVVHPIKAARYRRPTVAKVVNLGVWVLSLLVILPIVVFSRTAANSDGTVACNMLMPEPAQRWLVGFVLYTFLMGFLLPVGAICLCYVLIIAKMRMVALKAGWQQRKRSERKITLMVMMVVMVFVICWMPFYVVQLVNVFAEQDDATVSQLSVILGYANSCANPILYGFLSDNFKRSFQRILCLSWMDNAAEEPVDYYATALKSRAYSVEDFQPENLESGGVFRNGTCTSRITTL
T1 sequence (P30874 whole entry): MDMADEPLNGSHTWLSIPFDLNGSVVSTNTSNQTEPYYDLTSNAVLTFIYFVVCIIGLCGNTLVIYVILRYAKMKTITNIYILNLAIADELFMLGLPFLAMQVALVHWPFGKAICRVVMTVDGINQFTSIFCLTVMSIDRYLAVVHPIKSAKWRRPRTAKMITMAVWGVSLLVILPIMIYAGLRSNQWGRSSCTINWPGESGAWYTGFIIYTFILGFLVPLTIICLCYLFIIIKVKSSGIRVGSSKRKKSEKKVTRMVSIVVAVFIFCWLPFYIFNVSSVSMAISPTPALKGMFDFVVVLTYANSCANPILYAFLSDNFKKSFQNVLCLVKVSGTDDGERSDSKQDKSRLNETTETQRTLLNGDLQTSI

EC50 [1] [nM] | EC50 (SSTR5) [nM] | EC50 (SSTR3) [nM] | EC50 (SSTR4; [2]) [nM] | EC50 (SSTR1) [nM] | EC50 (SSTR4) [nM] | Compound
< 100 | > 10000 | 100 to 10000 | < 100 | – | – | Cc1cc(Cl)cc(-c2cnc3ncn(-c4cc(O)cc(OC(F)(F)F)c4)c(=O)c3c2CN(C)C[C@@H]2CCCN2)c1 [Compound A-52, 6-(3-chloro-5-methylphenyl)-3-[3-hydroxy-5-(trifluoromethoxy)phenyl]-5-({methyl[(2S)-pyrrolidin-2-ylmethyl]amino}methyl)-3H,4H-pyrido[2,3-d]pyrimidin-4-one]
100 to 10000 | > 10000 | 100 to 10000 | < 100 | – | – | Cc1cc(C)cc(-c2cnc3ncn(-c4cccc(O)c4)c(=O)c3c2CN(CCN)Cc2ccccc2)c1 [Compound A-5, 5-{[(2-aminoethyl)(benzyl)amino]methyl}-6-(3,5-dimethylphenyl)-3-(3-hydroxyphenyl)-3H,4H-pyrido[2,3-d]pyrimidin-4-one]
100 to 10000 | – | – | < 100 | – | – | CC(C)c1cccc(-c2cnc3ncn(-c4cccc(O)c4)c(=O)c3c2CN(C)CC2CCCCN2)c1 (stereo not shown) [Compound A-22, 3-(3-hydroxyphenyl)-5-{[methyl(piperidin-2-ylmethyl)amino]methyl}-6-[3-(propan-2-yl)phenyl]-3H,4H-pyrido[2,3-d]pyrimidin-4-one]
< 100 | – | < 100 | < 100 | – | – | Cc1cc(Cl)cc(-c2cnc3ncn(-c4cc(O)cc(C#N)c4)c(=O)c3c2CN(C)C[C@@H]2CCCN2)c1 [Compound A-71, 6-(3-methyl-5-chlorophenyl)-3-(3-cyano-5-hydroxyphenyl)-5-({methyl[(2S)-pyrrolidin-2-ylmethyl]amino}methyl)-3H,4H-pyrido[2,3-d]pyrimidin-4-one]
< 100 | 100 to 10000 | 100 to 10000 | 100 to 10000 | – | – | 3-[5-({[(2S)-2-aminobutyl](methyl)amino}methyl)-6-(3,5-dimethylphenyl)-4-oxo-3H,4H-pyrido[2,3-d]pyrimidin-3-yl]-5-fluorobenzamide [Compound A-64]
100 to 10000 | > 10000 | – | 100 to 10000 | – | – | Cc1cc(C)cc(-c2cnc3ncn(-c4cccc(O)c4)c(=O)c3c2CN(C)CCNCc2ccccc2)c1 [Compound A-6, 5-({[2-(benzylamino)ethyl](methyl)amino}methyl)-6-(3,5-dimethylphenyl)-3-(3-hydroxyphenyl)-3H,4H-pyrido[2,3-d]pyrimidin-4-one]
< 100 | – | < 100 | < 100 | – | – | COc1cccc(-c2cnc3ncn(-c4cccc(O)c4)c(=O)c3c2CN(C)CC2CCCCN2)c1 (stereo not shown) [Compound A-23, 3-(3-hydroxyphenyl)-6-(3-methoxyphenyl)-5-{[methyl(piperidin-2-ylmethyl)amino]methyl}-3H,4H-pyrido[2,3-d]pyrimidin-4-one]
< 100 | > 10000 | 100 to 10000 | < 100 | – | – | Cc1cc(CO)cc(-c2cnc3ncn(-c4cccc(O)c4)c(=O)c3c2CN(C)C[C@@H]2CCCN2)c1 [Compound A-37, 6-[3-(hydroxymethyl)-5-methylphenyl]-3-(3-hydroxyphenyl)-5-({methyl[(2S)-pyrrolidin-2-ylmethyl]amino}methyl)-3H,4H-pyrido[2,3-d]pyrimidin-4-one]
100 to 10000 | – | 100 to 10000 | < 100 | – | – | Cc1cc(C)cc(-c2cnc3ncn(-c4cc(F)cc(C#N)c4)c(=O)c3c2CN(C)C[C@@H]2CCCN2)c1 [Compound A-46, 3-[6-(3,5-dimethylphenyl)-5-({methyl[(2S)-pyrrolidin-2-ylmethyl]amino}methyl)-4-oxo-3H,4H-pyrido[2,3-d]pyrimidin-3-yl]-5-fluorobenzonitrile]
< 100 | – | 100 to 10000 | < 100 | – | – | CCN(CCN)Cc1c(-c2cc(C)cc(Cl)c2)cnc2nc(C)n(-c3cc(O)cc(F)c3)c(=O)c12 [Compound A-67, 5-{[(2-aminoethyl)(ethyl)amino]methyl}-6-(3-chloro-5-methylphenyl)-3-(3-fluoro-5-hydroxyphenyl)-2-methyl-3H,4H-pyrido[2,3-d]pyrimidin-4-one]
< 100 | – | < 100 | < 100 | – | – | CN(Cc1c(-c2cccc3ccccc23)cnc2ncn(-c3cccc(O)c3)c(=O)c12)CC1CCCCN1 (stereo not shown) [Compound A-69, 3-(3-hydroxy-phenyl)-5-[(methyl-piperidin-2-ylmethyl-amino)-methyl]-6-naphthalen-1-yl-3H-pyrido[2,3-d]pyrimidin-4-one]
< 100 | 100 to 10000 | < 100 | < 100 | – | – | Cc1c(F)cccc1-c1cnc2ncn(-c3cccc(O)c3)c(=O)c2c1CN(C)CC1CCCCN1 (stereo not shown) [Compound A-26, 6-(3-fluoro-2-methylphenyl)-3-(3-hydroxyphenyl)-5-{[methyl(piperidin-2-ylmethyl)amino]methyl}-3H,4H-pyrido[2,3-d]pyrimidin-4-one]
< 100 | – | 100 to 10000 | < 100 | – | – | Cc1cc(Cl)cc(-c2cnc3ncn(-c4cccc(C(N)=O)c4)c(=O)c3c2CN(C)C[C@@H]2CCCN2)c1 [Compound A-31, 3-[6-(3-chloro-5-methylphenyl)-5-({methyl[(2S)-pyrrolidin-2-ylmethyl]amino}methyl)-4-oxo-3H,4H-pyrido[2,3-d]pyrimidin-3-yl]benzamide]
< 100 | > 10000 | 100 to 10000 | < 100 | – | – | CC[C@H](N)CN(C)Cc1c(-c2cc(C)cc(C)c2)cnc2ncn(-c3cccc(O)c3)c(=O)c12 [Compound A-61, 5-({[(2S)-2-aminobutyl](methyl)amino}methyl)-6-(3,5-dimethylphenyl)-3-(3-hydroxyphenyl)-3H,4H-pyrido[2,3-d]pyrimidin-4-one]
– | > 10000 | 100 to 10000 | – | 100 to 10000 | < 100 | Cc1cc(C)cc(-c2cnc3ncn(-c4cccc(C#N)c4)c(=O)c3c2CN(C)C[C@@H]2CCCN2)c1 [Compound A-42, 3-[6-(3,5-dimethylphenyl)-5-({methyl[(2S)-pyrrolidin-2-ylmethyl]amino}methyl)-4-oxo-3H,4H-pyrido[2,3-d]pyrimidin-3-yl]benzonitrile]
– | 100 to 10000 | < 100 | – | 100 to 10000 | < 100 | CN(Cc1c(-c2cc(Cl)cc(CO)c2)cnc2ncn(-c3cccc(O)c3)c(=O)c12)C[C@@H]1CCCN1 [Compound A-38, 6-[3-chloro-5-(hydroxymethyl)phenyl]-3-(3-hydroxyphenyl)-5-({methyl[(2S)-pyrrolidin-2-ylmethyl]amino}methyl)-3H,4H-pyrido[2,3-d]pyrimidin-4-one]
– | 100 to 10000 | < 100 | – | 100 to 10000 | < 100 | Cc1cc(Cl)cc(-c2cnc3ncn(-c4cccc(O)c4)c(=O)c3c2CN(C)C[C@@H]2CCCN2)c1 [Compound A-30, 6-(3-chloro-5-methylphenyl)-3-(3-hydroxyphenyl)-5-({methyl[(2S)-pyrrolidin-2-ylmethyl]amino}methyl)-3H,4H-pyrido[2,3-d]pyrimidin-4-one]
– | 100 to 10000 | 100 to 10000 | – | > 10000 | < 100 | CCN(CCN)Cc1c(-c2cc(C)cc(C)c2)cnc2ncn(-c3cccc(O)c3)c(=O)c12 [Compound A-2, 5-{[(2-aminoethyl)(ethyl)amino]methyl}-6-(3,5-dimethylphenyl)-3-(3-hydroxyphenyl)-3H,4H-pyrido[2,3-d]pyrimidin-4-one]
– | > 10000 | 100 to 10000 | – | 100 to 10000 | < 100 | Cc1cc(F)cc(-c2cnc3ncn(-c4cccc(O)c4)c(=O)c3c2CN(C)C[C@@H]2CCCN2)c1 [Compound A-36, 6-(3-fluoro-5-methylphenyl)-3-(3-hydroxyphenyl)-5-({methyl[(2S)-pyrrolidin-2-ylmethyl]amino}methyl)-3H,4H-pyrido[2,3-d]pyrimidin-4-one]
